Results from patent publication US20100298141A1, “SUBSTITUTED PYRIDINE N-OXIDE HERBICIDES” (E. I. DU PONT DE NEMOURS AND COMPANY, priority 2007, published 2010).

Legend:
[1] = test system: catchweed bedstraw; assay: Test C pre-/postemergence test; format: in vivo, Galium aparine
Summary of the method: (§1)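 Compounds in a non-phytotoxic solvent with surfactant applied preemergence to seeded pots and, at the same time, postemergence to plants 2–18 cm tall (1- to 4-leaf stage). Paddy tests: pots flooded to 3 cm, compound applied into the water, depth held throughout.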

[2] = test system: velvetleaf; assay: Test A pre-/postemergence greenhouse test; format: in vivo, Abutilon theophrasti; conditions: for Velvetleaf plant response rating: 0 to 100 scale; for Plant response rating, Velvetleaf: 0 to 100 scale where 0 is no effect and 100 is complete control
Summary of the method: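 Visual injury ratings, made relative to untreated controls roughly ten days after treatment, cover both preemergence and postemergence application. Compounds in a surfactant-containing non-phytotoxic solvent were sprayed onto the soil surface after sowing and, simultaneously, onto young plants at the one- to two-leaf stage.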

[3] = test system: giant foxtail; assay: Test C pre-/postemergence test; format: in vivo, Setaria faberii
Summary of the method: as §1

[4] = test system: Italian ryegrass; assay: Test C pre-/postemergence test; format: in vivo, Lolium multiflorum
Summary of the method: as §1

[5] = test system: corn; assay: Test C pre-/postemergence test; format: in vivo, Zea mays
Summary of the method: as §1

[6] = test system: green foxtail; assay: Test C pre-/postemergence test; format: in vivo, Setaria viridis
Summary of the method: as §1

[7] = test system: velvetleaf; assay: Test C pre-/postemergence test; format: in vivo, Abutilon theophrasti
Summary of the method: as §1

[8] = test system: downy brome; assay: Test C pre-/postemergence test; format: in vivo, Bromus tectorum
Summary of the method: as §1

[9] = test system: wild oat; assay: Test C pre-/postemergence test; format: in vivo, Avena fatua
Summary of the method: as §1

[10] = test system: cocklebur; assay: Test C pre-/postemergence test; format: in vivo, Xanthium strumarium
Summary of the method: as §1

[11] = test system: morningglory; assay: Test C pre-/postemergence test; format: in vivo, Ipomoea coccinea
Summary of the method: as §1

[12] = test system: barnyardgrass; assay: Test C flooded paddy test; format: in vivo, Echinochloa crus-galli; conditions: Flood
Summary of the method: (§2)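 Ratings were visual and made relative to untreated controls after 13 to 15 greenhouse days.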

[13] = test system: soybean; assay: Test C pre-/postemergence test; format: in vivo, Glycine max
Summary of the method: as §1

[14] = test system: woolly cupgrass; assay: Test C pre-/postemergence test; format: in vivo, Eriochloa villosa
Summary of the method: as §1

[15] = test system: johnsongrass; assay: Test C pre-/postemergence test; format: in vivo, Sorghum halepense
Summary of the method: as §1

[16] = test system: duck salad; assay: Test C flooded paddy test; format: in vivo, Heteranthera limosa; conditions: Flood
Summary of the method: as §2

[17] = test system: blackgrass; assay: Test C pre-/postemergence test; format: in vivo, Alopecurus myosuroides
Summary of the method: as §1

[18] = 31 g ai/ha, Preemergence, scale 0 to 100
[19] = 62 g ai/ha, preemergence, scale 0 (no effect) to 100 (complete control)
[20] = preemergence, 125 g ai/ha, scale 0 (no effect) to 100 (complete control)
[21] = Postemergence, 500 g ai/ha, 0 is no effect, 100 is complete control
[22] = 31 g ai/ha, scale 0 to 100 (0 no effect, 100 complete control)
[23] = 62 g ai/ha, scale 0 to 100, 0 no effect, 100 complete control, 13 to 15 days
[24] = 125 g ai/ha, scale 0 to 100, 0 no effect, 100 complete control, 13 to 15 days
[25] = 250 g ai/ha, scale 0 to 100 (0 no effect, 100 complete control)
[26] = 62 g ai/ha, Preemergence, scale 0 to 100
[27] = 125 g ai/ha, preemergence, scale 0 (no effect) to 100 (complete control)
[28] = Preemergence, 31 g ai/ha, scale 0 to 100 (0 no effect, 100 complete control)
[29] = preemergence, 250 g ai/ha, scale 0 (no effect) to 100 (complete control)
[30] = 62 g ai/ha, scale 0 to 100 (0 no effect, 100 complete control)
[31] = 250 g ai/ha, scale 0 to 100, 0 no effect, 100 complete control, 13 to 15 days

Cn1nc(C(F)(F)F)c(CS(=O)(=O)c2ccc(Cl)c[n+]2[O-])c1OC(F)F [Compound 7]
60: Foxtail, Green plant response rating [6, 19]
70: Plant response rating (0 to 100), Oat, Wild ([9]; Preemergence, 250 g ai/ha) | Cupgrass, Woolly plant response rating [14, 19] | Blackgrass plant response rating [17, 18] | Blackgrass plant response rating [17, 19]
95: Plant response rating (0 to 100), Galium ([1]; Preemergence, 250 g ai/ha)
100: Plant response rating (0 to 100), Foxtail, Giant ([3]; Preemergence, 250 g ai/ha) | Plant response rating (0 to 100), Foxtail, Green ([6]; Preemergence, 250 g ai/ha) | Plant response rating (0 to 100), Cupgrass, Woolly ([14]; Preemergence, 250 g ai/ha) | Johnsongrass plant response rating [15, 19] | Plant response rating (0 to 100), Johnsongrass ([15]; Preemergence, 250 g ai/ha) | Johnsongrass plant response rating [15, 20] | Plant response rating (0 to 100), Blackgrass ([17]; Preemergence, 250 g ai/ha)
20: Velvetleaf plant response rating [2, 21] | Plant response rating, Barnyardgrass [12, 25]
40: Galium plant response rating [1, 18] | Ryegrass, Italian plant response rating [4, 19] | Foxtail, Green plant response rating [6, 18] | Oat, Wild plant response rating [9, 20]
30: Plant response rating, Velvetleaf ([2]; Preemergence, 500 g ai/ha) | Plant response rating (0 to 100), Corn ([5]; Preemergence, 250 g ai/ha) | Oat, Wild plant response rating [9, 19] | Plant response rating (0 to 100), Soybean ([13]; Preemergence, 250 g ai/ha) | Plant response rating, Ducksalad [16, 22]
90: Galium plant response rating [1, 20] | Johnsongrass plant response rating [15, 18]
98: Cupgrass, Woolly plant response rating [14, 20]
75: Plant response rating, Ducksalad [16, 24]
50: Foxtail, Giant plant response rating [3, 18] | Foxtail, Giant plant response rating [3, 19] | Plant response rating (0 to 100), Ryegrass, Italian ([4]; Preemergence, 250 g ai/ha) | Ryegrass, Italian plant response rating [4, 20] | Cupgrass, Woolly plant response rating [14, 18] | Plant response rating, Ducksalad [16, 23]
80: Foxtail, Giant plant response rating [3, 20] | Foxtail, Green plant response rating [6, 20] | Plant response rating, Ducksalad [16, 25]
85: Galium plant response rating [1, 19] | Blackgrass plant response rating [17, 20]
0: Velvetleaf plant response rating ([2]; Postemergence, 125 g ai/ha, 0 is no effect, 100 is complete control) | Ryegrass, Italian plant response rating [4, 18] | Corn plant response rating [5, 18] | Corn plant response rating [5, 19] | Velvetleaf plant response rating [7, 19] | Plant response rating (0 to 100), Velvetleaf ([7]; Preemergence, 250 g ai/ha) | Velvetleaf plant response rating [7, 20] | Bromegrass, Downy plant response rating [8, 18] | Bromegrass, Downy plant response rating [8, 19] | Plant response rating (0 to 100), Bromegrass, Downy ([8]; Preemergence, 250 g ai/ha) | Bromegrass, Downy plant response rating [8, 20] | Oat, Wild plant response rating [9, 18] | Cocklebur plant response rating [10, 18] | Cocklebur plant response rating [10, 19] | Plant response rating (0 to 100), Cocklebur ([10]; Preemergence, 250 g ai/ha) | Cocklebur plant response rating [10, 20] | Morningglory plant response rating [11, 18] | Morningglory plant response rating [11, 19] | Plant response rating (0 to 100), Morningglory ([11]; Preemergence, 250 g ai/ha) | Morningglory plant response rating [11, 20] | Plant response rating, Barnyardgrass [12, 22] | Plant response rating, Barnyardgrass [12, 23] | Plant response rating, Barnyardgrass [12, 24] | Soybean plant response rating [13, 18] | Soybean plant response rating [13, 19] | Soybean plant response rating [13, 20]
10: Corn plant response rating [5, 20]

CC(Oc1c(C[S+]([O-])c2cccc[n+]2[O-])c(C(F)(F)F)nn1C)C(F)(F)F (stereo not drawn) [Compound 77]
65: Morningglory plant response rating [11, 26]
98: Ryegrass, Italian plant response rating [4, 26] | Cupgrass, Woolly plant response rating [14, 26]
45: Bromegrass, Downy plant response rating [8, 26] | Soybean plant response rating [13, 26]
75: Plant response rating, Barnyardgrass [12, 31] | Plant response rating, Ducksalad [16, 30]
0: Plant response rating, Bromegrass, Downy [8, 28] | Cocklebur plant response rating [10, 27] | Plant response rating, Cocklebur [10, 28] | Cocklebur plant response rating [10, 29] | Plant response rating, Barnyardgrass [12, 30]
35: Plant response rating, Oat, Wild [9, 28]
50: Plant response rating, Velvetleaf ([2]; Postemergence, 125 g ai/ha) | Velvetleaf plant response rating ([2]; Preemergence, 125 g ai/ha, 0 no effect, 100 complete control)
95: Corn plant response rating [5, 26] | Oat, Wild plant response rating [9, 29]
70: Bromegrass, Downy plant response rating [8, 27] | Oat, Wild plant response rating [9, 26] | Soybean plant response rating [13, 27]
80: Plant response rating, Foxtail, Giant [3, 28] | Plant response rating, Ryegrass, Italian [4, 28] | Plant response rating, Cupgrass, Woolly [14, 28]
60: Plant response rating, Velvetleaf [7, 28] | Plant response rating, Morningglory [11, 28] | Plant response rating, Johnsongrass [15, 28]
100: Galium plant response rating [1, 26] | Galium plant response rating [1, 27] | Plant response rating, Galium [1, 28] | Galium plant response rating [1, 29] | Plant response rating, Velvetleaf ([2]; Preemergence, 500 g ai/ha) | Foxtail, Giant plant response rating [3, 26] | Foxtail, Giant plant response rating [3, 27] | Foxtail, Giant plant response rating [3, 29] | Ryegrass, Italian plant response rating [4, 27] | Ryegrass, Italian plant response rating [4, 29] | Corn plant response rating [5, 27] | Corn plant response rating [5, 29] | Foxtail, Green plant response rating [6, 27] | Foxtail, Green plant response rating [6, 29] | Velvetleaf plant response rating [7, 26] | Velvetleaf plant response rating [7, 27] | Velvetleaf plant response rating [7, 29] | Bromegrass, Downy plant response rating [8, 29] | Morningglory plant response rating [11, 27] | Morningglory plant response rating [11, 29] | Soybean plant response rating [13, 29] | Cupgrass, Woolly plant response rating [14, 27] | Cupgrass, Woolly plant response rating [14, 29] | Johnsongrass plant response rating [15, 26] | Johnsongrass plant response rating [15, 27] | Johnsongrass plant response rating [15, 29] | Plant response rating, Ducksalad [16, 31] | Blackgrass plant response rating [17, 26] | Blackgrass plant response rating [17, 27] | Plant response rating, Blackgrass [17, 28] | Blackgrass plant response rating [17, 29]
85: Foxtail, Green plant response rating [6, 26] | Plant response rating, Foxtail, Green [6, 28]
40: Plant response rating, Corn [5, 28] | Plant response rating, Soybean [13, 28]
90: Velvetleaf plant response rating [2, 21] | Oat, Wild plant response rating [9, 27]
